Measured values reported in patent US9175028B2, “Glycoside compound” (AJINOMOTO CO., INC., priority 2010, dated 2015).
Entries after “also recorded” stand apart in the source; their conditions may differ.

Key:
[1] = system: human colorectal cancer-derived cell line NCI-H716; experiment: GLP-1 secretion, GLP-1 concentration in supernatant by ELISA; type: cell-based; conditions: for GLP-1 concentration in the supernatant compared to the DMSO treatment (control) group: 60 minutes, result in words (FIGS. 1-11); for fold induction at 100 µM / fold induction at 300 µM: Homo sapiens, NCI-H716, 1 h, GLP-1 concentration in supernatant against control group (0.1% DMSO) as 1, 60 minutes
Description: Subcultured human colorectal cancer-derived cell line NCI-H716 (ATCC) was plated on a poly-D-lysine coated 96-well plate at 1×10^5 cells per well. After culture at 37° C., 5% CO2 for 48 hours, the medium was substituted with a buffer (146 mM NaCl, 5 mM KCl, 1 mM MgSO4, 5.5 mM Glucose, 20 mM HEPES, 1.5 mM CaCl2, 0.2% BSA, pH 7.4), and dihydrocapsiate (DCT), dihydrocapsiate glycoside and structural analogs thereof (compounds 4, 12, 47, 27, 20, 18, 16, 30, 32, 32-3, 34, 35, 36, 24-2, 33, 14, 22, 23 and 24), each prepared to a given concentration with dimethyl sulfoxide (DMSO), were added. After treatment at 37° C., 5% CO2 for 60 minutes, the supernatant was recovered, and the concentration of GLP-1 in the supernatant was measured by the ELISA method. The strength of the activity of each compound is expressed against GLP-1 concentration of the control group (0.1% DMSO treatment group) as 1, and the compound showing higher GLP-1 concentration than the control group was evaluated as active.

C57BL/6J mice = experiment: food ingestion calories of mice fed test diets for 56 days; type: in vivo; conditions: 0.459% (w/w) in high-fat diet, mouse, compared to normal diet, high-fat diet alone or high-fat diet added with DCT, result in words, listed as glycoside DCT
Description: Glycoside DCT was added at a proportion of 0.459% (w/w) to AIN-93 composition diet containing 30% lard (to be abbreviated as glycoside DCT diet or glycoside diet), and fed to mouse. […] As a control, AIN-93 composition diet containing 7% lard (to be abbreviated as normal diet), AIN-93 composition diet containing 30% lard (to be abbreviated as high-fat diet), and high-fat diet containing 0.3% (w/w) dihydrocapsiate (DCT) (to be abbreviated as DCT diet) were fed to the mouse.
The details of the test method are shown below. 7-week-old male C57BL/6J mice (n=46) (Charles River Laboratories) were acclimated for 2 weeks, divided into 4 groups such that they have the same average body weight, and each group was allowed to freely ingest a food having the composition shown in Table 2 for 56 days. The body weight and the food ingestion amount were measured every 3-4 days.

[2] = system: human colorectal cancer-derived cell line NCI-H716; experiment: GLP-1 secretion, GLP-1 concentration in supernatant by ELISA; type: cell-based; conditions: result in words (FIG. 2)

## COc1cc(CC(=O)OCCCCCCCC(C)C)ccc1OC1OC(CO)C(OC2OC(CO)C(O)C(O)C2O)C(O)C1O [compound 22, O-8-methylnonyl-2-[4-(β-D-glucopyranosyl-(1→4)-β-D-glucopyranosyloxy)-3-methoxyphenyl]acetic acid ester]
[1]
  GLP-1 concentration in the supernatant compared to the DMSO treatment (control) group: increased
  fold induction at 100 µM: 1.87
  fold induction at 300 µM: 1.66

## COc1cc(COC(=O)CCCCCCC(C)C)ccc1OC1OC(CO)C(O)C(O)C1O [compound 4, O-[4-(β-D-glucopyranosyloxy)-3-methoxybenzyl]-8-methylnonanoic acid ester]
[1]
  GLP-1 concentration in the supernatant compared to the DMSO treatment (control) group: increased in a compound concentration-dependent manner
  fold induction at 100 µM: 2.3
C57BL/6J mice
  total ingested calories during the test period: suppress food ingestion calories; also recorded: significant decrease
[2]
  GLP-1 concentration compared to the group treated with equimolar concentration of glucose or cellobiose: markedly high

## COc1cc(COC(=O)CCCCCC(C)C)ccc1OC1OC(CO)C(OC2OC(CO)C(O)C(O)C2O)C(O)C1O [compound 36, O-[4-(β-D-glucopyranosyl-(1→4)-β-D-glucopyranosyloxy)-3-methoxybenzyl]-7-methyloctanoic acid ester]
[1]
  GLP-1 concentration in the supernatant compared to the DMSO treatment (control) group: increased
  fold induction at 100 µM: 1.19
  fold induction at 300 µM: 2.41

## COc1cc(COC(=O)CCCC/C=C/C(C)C)ccc1OC1OC(CO)C(O)C(O)C1O [compound 20, O-[4-(β-D-glucopyranosyloxy)-3-methoxybenzyl]-8-methyl-6-nonenoic acid ester]
[1]
  GLP-1 concentration in the supernatant compared to the DMSO treatment (control) group: increased
  fold induction at 100 µM: 1.13
  fold induction at 300 µM: 1.56

## COc1cc(CCC(=O)OCCCCCCCC(C)C)ccc1OC1OC(CO)C(O)C(O)C1O [compound 30, O-8-methylnonyl-3-[4-(β-D-glucopyranosyloxy)-3-methoxyphenyl]propionic acid ester]
[1]
  GLP-1 concentration in the supernatant compared to the DMSO treatment (control) group: increased
  fold induction at 100 µM: 0.93
  fold induction at 300 µM: 2.6

## COc1cccc(COC(=O)CCCCCCC(C)C)c1OC1OC(COC(C)=O)C(OC2OC(COC(C)=O)C(OC(C)=O)C(OC(C)=O)C2OC(C)=O)C(OC(C)=O)C1OC(C)=O (centres unmarked) [compound 24-2]
[1]
  GLP-1 concentration in the supernatant compared to the DMSO treatment (control) group: increased
  fold induction at 100 µM: 0.87
  fold induction at 300 µM: 1.15

## COc1cc(CCOC(=O)CCCCCCC(C)C)ccc1OC1OC(CO)C(OC2OC(CO)C(O)C(O)C2O)C(O)C1O [compound 23, O-[4-(β-D-glucopyranosyl-(1→4)-β-D-glucopyranosyloxy)-3-methoxyphenethyl]-8-methylnonanoic acid ester]
[1]
  GLP-1 concentration in the supernatant compared to the DMSO treatment (control) group: increased
  fold induction at 100 µM: 1.37
  fold induction at 300 µM: 10.3

## COc1cc(CO)ccc1O[C@@H]1O[C@H](CO)[C@@H](O[C@@H]2O[C@H](CO)[C@@H](O)[C@H](O)[C@H]2O)[C@H](O)[C@H]1O [compound 14, 4-(β-D-glucopyranosyl-(1→4)-β-D-glucopyranosyloxy)-3-methoxybenzyl alcohol]
[1]
  GLP-1 concentration in the supernatant compared to the DMSO treatment (control) group: increased
  fold induction at 100 µM: 1.07
  fold induction at 300 µM: 1.12

## COc1cc(CCC(=O)OCCCCCCCC(C)C)ccc1OC1OC(CO)C(OC2OC(CO)C(O)C(O)C2O)C(O)C1O [compound 32, O-8-methylnonyl-3-[4-(β-D-glucopyranosyl-(1→4)-β-D-glucopyranosyloxy)-3-methoxyphenyl]propionic acid ester]
[1]
  GLP-1 concentration in the supernatant compared to the DMSO treatment (control) group: increased
  fold induction at 100 µM: 1.24
  fold induction at 300 µM: 3.46

## COc1cc(COC(=O)CCCC/C=C/C(C)C)ccc1OC1OC(CO)C(OC2OC(CO)C(O)C(O)C2O)C(O)C1O [compound 35, O-[4-(β-D-glucopyranosyl-(1→4)-β-D-glucopyranosyloxy)-3-methoxybenzyl]-8-methyl-6-nonenoic acid ester]
[1]
  GLP-1 concentration in the supernatant compared to the DMSO treatment (control) group: increased
  fold induction at 100 µM: 1.14
  fold induction at 300 µM: 2.4

## COc1cc(COC(=O)CCCCCCC(C)C)ccc1O [DCT, dihydrocapsiate, reference compound]
[1]
  GLP-1 concentration in the supernatant compared to the DMSO treatment (control) group: did not show a similar change

## COc1ccc(COC(=O)CCCCCCC(C)C)cc1OC1OC(CO)C(O)C(O)C1O [compound 34, O-[3-(β-D-glucopyranosyloxy)-4-methoxybenzyl]-8-methylnonanoic acid ester]
[1]
  GLP-1 concentration in the supernatant compared to the DMSO treatment (control) group: increased
  fold induction at 100 µM: 1.29
  fold induction at 300 µM: 1.94

## COc1cc(CNC(=O)CCCCCCC(C)C)ccc1O[C@@H]1O[C@H](CO)[C@@H](O)[C@H](O)[C@H]1O [compound 47, N-[4-(β-D-glucopyranosyloxy)-3-methoxybenzyl]-8-methylnonanamide, reference compound]
[1]
  GLP-1 concentration in the supernatant compared to the DMSO treatment (control) group: did not show GLP-1 secretion promoting activity
  fold induction at 100 µM: 0.61
  fold induction at 300 µM: 0.78

## COc1cc(COC(=O)CCCCCC(C)C)ccc1OC1OC(CO)C(O)C(O)C1O [compound 18, O-[4-(β-D-glucopyranosyloxy)-3-methoxybenzyl]-7-methyloctanoic acid ester]
[1]
  GLP-1 concentration in the supernatant compared to the DMSO treatment (control) group: increased
  fold induction at 100 µM: 1.33
  fold induction at 300 µM: 1.85

## COc1cc(COC(=O)CCCCCCC(C)C)ccc1OC1OC(CO)C(OC2OC(CO)C(O)C(O)C2O)C(O)C1O [compound 12, O-[4-(β-D-glucopyranosyl-(1→4)-β-D-glucopyranosyloxy)-3-methoxybenzyl]-8-methylnonanoic acid ester]
[1]
  GLP-1 concentration in the supernatant compared to the DMSO treatment (control) group: increased in a compound concentration-dependent manner
  fold induction at 100 µM: 5.02
[2]
  GLP-1 concentration compared to the group treated with equimolar concentration of glucose or cellobiose: markedly high

## COc1cc(CNC(=O)CCCCCCC(C)C)ccc1O[C@@H]1O[C@H](CO)[C@@H](O[C@@H]2O[C@H](CO)[C@@H](O)[C@H](O)[C@H]2O)[C@H](O)[C@H]1O [compound 27, N-[4-(β-D-glucopyranosyl-(1→4)-β-D-glucopyranosyloxy)-3-methoxybenzyl]-8-methylnonanamide, reference compound]
[1]
  GLP-1 concentration in the supernatant compared to the DMSO treatment (control) group: did not show GLP-1 secretion promoting activity
  fold induction at 100 µM: 0.66
  fold induction at 300 µM: 0.71

## COc1cccc(COC(=O)CCCCCCC(C)C)c1OC1OC(CO)C(OC2OC(CO)C(O)C(O)C2O)C(O)C1O [compound 24, O-[2-(β-D-glucopyranosyl-(1→4)-β-D-glucopyranosyloxy)-3-methoxybenzyl]-8-methylnonanoic acid ester]
[1]
  GLP-1 concentration in the supernatant compared to the DMSO treatment (control) group: increased
  fold induction at 100 µM: 1.33
  fold induction at 300 µM: 9.5

## CCCCCCCCCC(=O)OCc1ccc(OC2OC(CO)C(O)C(O)C2O)c(OC)c1 [compound 16, O-[4-(β-D-glucopyranosyloxy)-3-methoxybenzyl]-decanoic acid ester]
[1]
  GLP-1 concentration in the supernatant compared to the DMSO treatment (control) group: increased
  fold induction at 100 µM: 1.23
  fold induction at 300 µM: 3.25
